PubChem BioAssay (NCI)
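At the GI50, growth is halved. TGI denotes the concentration required for complete inhibition of growth.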

Tests used:
Test in all cases: DTP human tumour cell line panel, 384-well format
[1] = test system: 786-0 renal
[2] = test system: A549 NSCLC
[3] = test system: ACHN renal
[4] = test system: BT-549 breast
[5] = test system: CAKI-1 renal
[6] = test system: CCRF-CEM leukemia
[7] = test system: COLO 205 colon
[8] = test system: DU-145 prostate
[9] = test system: EKVX NSCLC
[10] = test system: HCC-2998 colon
[11] = test system: HCT-116 colon
[12] = test system: HCT-15 colon
[13] = test system: HL-60(TB) leukemia
[14] = test system: HOP-62 NSCLC
[15] = test system: HOP-92 NSCLC
[16] = test system: HS 578T breast
[17] = test system: HT29 colon
[18] = test system: IGROV1 ovarian
[19] = test system: K-562 leukemia
[20] = test system: KM12 colon
[21] = test system: LOX IMVI melanoma
[22] = test system: M14 melanoma
[23] = test system: MALME-3M melanoma
[24] = test system: MCF7 breast
[25] = test system: MDA-MB-435 melanoma
[26] = test system: MDA-MB-468 breast
[27] = test system: MOLT-4 leukemia
[28] = test system: NCI-H226 lung
[29] = test system: NCI-H23 lung
[30] = test system: NCI-H322M lung
[31] = test system: NCI-H460 NSCLC
[32] = test system: NCI/ADR-RES ovarian
[33] = test system: OVCAR-3 ovarian
[34] = test system: OVCAR-4 ovarian
[35] = test system: OVCAR-5 ovarian
[36] = test system: OVCAR-8 ovarian
[37] = test system: PC-3 prostate
[38] = test system: RPMI-8226 leukemia
[39] = test system: RXF 393 renal
[40] = test system: SF-268 CNS
[41] = test system: SF-295 CNS
[42] = test system: SF-539 CNS
[43] = test system: SK-MEL-5 melanoma
[44] = test system: SK-OV-3 ovarian
[45] = test system: SNB-75 CNS
[46] = test system: SW-620 colon
[47] = test system: T-47D breast
[48] = test system: TK-10 renal
[49] = test system: U251 glioblastoma
[50] = test system: UACC-257 melanoma
[51] = test system: UACC-62 melanoma
[52] = test system: UO-31 renal

In the case of `COc1ncc(-c2ccc3nccc(-c4ccnnc4)c3c2)cc1NS(=O)(=O)c1ccc(F)cc1F`, the GI50 [1] is reported as 17.1 nM, the TGI [1] is reported as 276 nM and the GI50 [2] is reported as under 10 nM. For the same compound, the TGI [2] was 101 nM, the GI50 [3] was under 10 nM and the TGI [3] was over 100000 nM. For the same compound, the GI50 [4] was under 10 nM, the TGI [4] was 48.3 nM and the GI50 [5] was under 10 nM. It also gave a TGI [5] of 106 nM, a GI50 [6] of under 10 nM and a TGI [6] of under 10 nM. For the same compound, the GI50 [7] was under 10 nM, the TGI [7] was 125 nM and the GI50 [8] was 21.4 nM. For the same compound, the TGI [8] was over 100000 nM, the GI50 [9] was under 10 nM and the TGI [9] was 98 nM. For the same compound, the GI50 [10] was 14.3 nM, the TGI [10] was 912 nM and the GI50 [11] was 13.3 nM. For the same compound, the TGI [11] was 1170 nM, the GI50 [12] was under 10 nM and the TGI [12] was 2960 nM. The GI50 [13] was under 10 nM, the TGI [13] was 10.7 nM and the GI50 [14] was 25.7 nM. It also gave a TGI [14] of 635 nM, a GI50 [15] of under 10 nM and a TGI [15] of 46 nM. It also gave a GI50 [16] of under 10 nM, a TGI [16] of 17.3 nM and a GI50 [17] of under 10 nM. The TGI [17] was 1410 nM, the GI50 [18] was under 10 nM and the TGI [18] was under 10 nM. The GI50 [19] was 44.2 nM, the TGI [19] was 12500 nM and the GI50 [20] was 21.9 nM. For the same compound, the TGI [20] was 2190 nM, the GI50 [21] was 12.3 nM and the TGI [21] was 135 nM. For the same compound, the GI50 [22] was under 10 nM, the TGI [22] was 1070 nM and the GI50 [23] was under 10 nM. For the same compound, the TGI [23] was 26.4 nM, the GI50 [24] was under 10 nM and the TGI [24] was 73400 nM. It also gave a GI50 [25] of 18.2 nM, a TGI [25] of 1130 nM and a GI50 [26] of under 10 nM. For the same compound, the TGI [26] was 11.7 nM, the GI50 [27] was under 10 nM and the TGI [27] was under 10 nM. It also gave a GI50 [28] of 18.5 nM, a TGI [28] of 2400 nM and a GI50 [29] of under 10 nM. The TGI [29] was 2520 nM, the GI50 [30] was 11.1 nM and the TGI [30] was 723 nM. For the same compound, the GI50 [31] was under 10 nM, the TGI [31] was 51.5 nM and the GI50 [32] was 43 nM. It also gave a TGI [32] of 1650 nM, a GI50 [33] of under 10 nM and a TGI [33] of 110 nM. The GI50 [34] was 25.2 nM, the TGI [34] was 480 nM and the GI50 [35] was under 10 nM. For the same compound, the TGI [35] was 1130 nM, the GI50 [36] was 23.4 nM and the TGI [36] was 1850 nM. For the same compound, the GI50 [37] was under 10 nM, the TGI [37] was 97.6 nM and the GI50 [38] was 15.5 nM. The TGI [38] was 54.4 nM, the GI50 [39] was under 10 nM and the TGI [39] was 25.3 nM. For the same compound, the GI50 [40] was under 10 nM, the TGI [40] was under 10 nM and the GI50 [41] was under 10 nM. For the same compound, the TGI [41] was 54.1 nM, the GI50 [42] was 13.8 nM and the TGI [42] was 103 nM. It also gave a GI50 [43] of under 10 nM, a TGI [43] of 43.6 nM and a GI50 [44] of under 10 nM. For the same compound, the TGI [44] was 51.3 nM, the GI50 [45] was under 10 nM and the TGI [45] was 14.2 nM. The GI50 [46] was 35.4 nM, the TGI [46] was 1500 nM and the GI50 [47] was under 10 nM. The TGI [47] was under 10 nM, the GI50 [48] was under 10 nM and the TGI [48] was 251 nM. For the same compound, the GI50 [49] was 21.1 nM, the TGI [49] was 1270 nM and the GI50 [50] was 13.3 nM. It also gave a TGI [50] of 87.3 nM, a GI50 [51] of under 10 nM and a TGI [51] of 33.3 nM. For the same compound, the GI50 [52] was under 10 nM and the TGI [52] was 137 nM.
